According to patent US6737383B1, “Herbicidal oxadiazolidines” (priority 1999, dated 2004):

Experiments:
bedstraw = assay: Test B pre/postemergence bedstraw; type: in vivo, Galium aparine
Method in brief: (§1)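 Test chemicals in a non-phytotoxic solvent mixture with surfactant were sprayed preemergence onto planted seeds and postemergence onto plants 2 to 18 cm tall (1- to 4-leaf stage). After twelve to sixteen days in a greenhouse, injury was visually rated against untreated controls from 0 (no effect) to 10 (complete control).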

blackgrass = assay: Test B pre/postemergence blackgrass; type: in vivo, Alopecurus myosuroides
Method in brief: as §1

surinam grass = assay: Test B pre/postemergence surinam grass; type: in vivo, Brachiaria decumbens
Method in brief: as §1

cocklebur = assay: Test B pre/postemergence cocklebur; type: in vivo, Xanthium strumarium
Method in brief: as §1

corn = assay: Test B pre/postemergence corn; type: in vivo, Zea mays
Method in brief: as §1

crabgrass = assay: Test B pre/postemergence crabgrass; type: in vivo, Digitaria sanguinalis
Method in brief: as §1

giant foxtail = assay: Test B pre/postemergence giant foxtail; type: in vivo, Setaria faberii
Method in brief: as §1

rape = assay: Test B pre/postemergence rape; type: in vivo, Brassica napus
Method in brief: as §1

soybean = assay: Test B pre/postemergence soybean; type: in vivo, Glycine max
Method in brief: as §1

sugar beet = assay: Test B pre/postemergence sugar beet; type: in vivo, Beta vulgaris
Method in brief: as §1

velvetleaf = assay: Test B pre/postemergence velvetleaf; type: in vivo, Abutilon theophrasti
Method in brief: as §1

wheat = assay: Test B pre/postemergence wheat; type: in vivo, Triticum aestivum
Method in brief: as §1

purple nutsedge = assay: Test B pre/postemergence purple nutsedge; type: in vivo, Cyperus rotundus
Method in brief: as §1

rice = assay: Test B flood test rice; type: in vivo, Oryza sativa
Method in brief: (§2)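 Plants were grown to the 2-leaf stage before treatment with test chemical, then held in a greenhouse for twelve to sixteen days. Injury was visually rated against untreated controls on a 0–10 scale, where 0 is no effect and 10 is complete control.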

smallflower flatsedge = assay: Test B flood test smallflower flatsedge; type: in vivo, Cyperus difformis
Method in brief: as §2

duck salad = assay: Test B flood test duck salad; type: in vivo, Heteranthera limosa
Method in brief: as §2

bamyardgrass = assay: Test B flood test barnyardgrass; type: in vivo, Echinochloa crus-galli
Method in brief: as §2

[1] = Postemergence, Rate 125 g/ha, scale of 0 to 10 where 0 is no effect and 10 is complete control
[2] = Postemergence, Rate 250 g/ha, scale of 0 to 10, 0 is no effect, 10 is complete control
[3] = Preemergence, Rate 62 g/ha, scale 0 to 10 (0 no effect, 10 complete control)
[4] = Preemergence, Rate 125 g/ha, scale of 0 to 10 where 0 is no effect and 10 is complete control
[5] = Preemergence, Rate 500 g/ha, scale of 0 to 10 where 0 is no effect and 10 is complete control
[6] = Postemergence, Rate 62 g/ha, scale 0 to 10, 0 is no effect, 10 is complete control
[7] = Postemergence, Rate 500 g/ha, scale of 0 to 10 where 0 is no effect and 10 is complete control
[8] = Rate 62 g/ha, flood test species, Pre-emergence, visual evaluation after twelve to sixteen days
[9] = Rate 125 g/ha, under heading Pre-emergence, flood test species, visual evaluation after twelve to sixteen days
[10] = Rate 250 g/ha, Pre-emergence (flood test species), scale 0 to 10, 0 is no effect, 10 is complete control
[11] = Rate 500 g/ha, Pre-emergence section of Table B, 0 to 10 scale (0 no effect, 10 complete control)

For `CC(C)N(C(=O)n1oc(=O)n(CC2=NOCCC2)c1=O)c1ccc(F)cc1F` [Compound 602], which “Plant response rating, Bedstraw” value (bedstraw; [1]) is on record?
The value was 3.

What about the “Bedstraw plant response rating” value (bedstraw; [2]) of the same compound?
The value was 3.

And the “Bedstraw plant response rating” value (bedstraw; [3])?
The value was 0.

What about the “Bedstraw plant response rating” value (bedstraw; [4]) of the same compound?
The value was 0.

And the “Bedstraw plant response rating (0 to 10 scale)” value (bedstraw; Preemergence, Rate 250 g/ha)?
Its value is 0.

And the “Bedstraw plant response rating” value (bedstraw; [5])?
The value was 0.

What about the “Plant response rating, Blackgrass” value (blackgrass; [6]) of the same compound?
Its value is 4.

What about the “Plant response rating, Blackgrass” value (blackgrass; [1]) of the same compound?
Its value is 6.

And the “Blackgrass plant response rating” value (blackgrass; [2])?
The value was 8.

What about the “Plant response rating, Blackgrass” value (blackgrass; [7]) of the same compound?
The value was 9.

What about the “Blackgrass plant response rating” value (blackgrass; [3]) of the same compound?
The value was 0.

And the “Blackgrass plant response rating” value (blackgrass; [4])?
Its value is 4.

And the “Blackgrass plant response rating (0 to 10 scale)” value (blackgrass; Preemergence, Rate 250 g/ha)?
The value was 6.

And the “Blackgrass plant response rating” value (blackgrass; [5])?
Its value is 9.

And the “Plant response rating, B. signalgrass” value (surinam grass; [6])?
The value was 0.

What about the “Plant response rating, B. signalgrass” value (surinam grass; [1]) of the same compound?
Its value is 2.

What about the “B. signalgrass plant response rating” value (surinam grass; [2]) of the same compound?
Its value is 5.

What about the “Plant response rating, B. signalgrass” value (surinam grass; [7]) of the same compound?
Its value is 7.

And the “B. signalgrass plant response rating” value (surinam grass; [3])?
Its value is 0.

What about the “B. signalgrass plant response rating” value (surinam grass; [4]) of the same compound?
Its value is 4.

What about the “B. signalgrass plant response rating (0 to 10 scale, 0 is no effect, 10 is complete control)” value (surinam grass; Preemergence, Rate 250 g/ha) of the same compound?
Its value is 7.

What about the “B. signalgrass plant response rating” value (surinam grass; [5]) of the same compound?
Its value is 7.

What about the “Plant response rating, Cocklebur” value (cocklebur; [6]) of the same compound?
Its value is 0.

What about the “Plant response rating, Cocklebur” value (cocklebur; [1]) of the same compound?
Its value is 0.

What about the “Cocklebur plant response rating” value (cocklebur; [2]) of the same compound?
The value was 0.

And the “Plant response rating, Cocklebur” value (cocklebur; [7])?
Its value is 0.

What about the “Cocklebur plant response rating” value (cocklebur; [3]) of the same compound?
Its value is 0.

What about the “Cocklebur plant response rating” value (cocklebur; [4]) of the same compound?
Its value is 0.

What about the “Cocklebur plant response rating (0 to 10 scale)” value (cocklebur; Preemergence, Rate 250 g/ha) of the same compound?
The value was 0.

What about the “Plant response rating, Cocklebur” value (cocklebur; [5]) of the same compound?
Its value is 0.

What about the “Plant response rating, Corn” value (corn; [6]) of the same compound?
The value was 0.

And the “Plant response rating, Corn” value (corn; [1])?
Its value is 0.

What about the “Corn plant response rating” value (corn; [2]) of the same compound?
Its value is 0.

What about the “Plant response rating, Corn” value (corn; [7]) of the same compound?
The value was 0.

And the “Corn plant response rating” value (corn; [3])?
Its value is 0.

What about the “Corn plant response rating” value (corn; [4]) of the same compound?
Its value is 0.

What about the “Corn plant response rating (0 to 10 scale)” value (corn; Preemergence, Rate 250 g/ha) of the same compound?
The value was 0.

And the “Plant response rating, Corn” value (corn; [5])?
Its value is 2.

And the “Plant response rating, Crabgrass” value (crabgrass; [6])?
Its value is 2.

And the “Plant response rating, Crabgrass” value (crabgrass; [1])?
The value was 4.

And the “Crabgrass plant response rating” value (crabgrass; [2])?
The value was 4.

And the “Plant response rating, Crabgrass” value (crabgrass; [7])?
Its value is 9.

And the “Crabgrass plant response rating” value (crabgrass; [3])?
The value was 7.

What about the “Crabgrass plant response rating” value (crabgrass; [4]) of the same compound?
The value was 8.

And the “Plant response rating, Crabgrass” value (crabgrass; [5])?
Its value is 10.

What about the “Plant response rating, Giant foxtail” value (giant foxtail; [6]) of the same compound?
Its value is 1.

What about the “Plant response rating, Giant foxtail” value (giant foxtail; [1]) of the same compound?
The value was 8.

And the “Giant foxtail plant response rating” value (giant foxtail; [2])?
The value was 9.

What about the “Plant response rating, Giant foxtail” value (giant foxtail; [7]) of the same compound?
The value was 9.

What about the “Giant foxtail plant response rating” value (giant foxtail; [3]) of the same compound?
The value was 9.

And the “Giant foxtail plant response rating” value (giant foxtail; [4])?
Its value is 9.

What about the “Plant response rating, Giant foxtail” value (giant foxtail; [5]) of the same compound?
The value was 10.

What about the “Plant response rating, Rape” value (rape; [6]) of the same compound?
The value was 0.

And the “Plant response rating, Rape” value (rape; [1])?
Its value is 0.

And the “Rape plant response rating” value (rape; [2])?
Its value is 0.

What about the “Plant response rating, Rape” value (rape; [7]) of the same compound?
Its value is 0.

And the “Rape plant response rating” value (rape; [3])?
The value was 0.

And the “Rape plant response rating” value (rape; [4])?
The value was 0.

And the “Plant response rating, Rape” value (rape; [5])?
Its value is 3.

What about the “Plant response rating, Soybean” value (soybean; [6]) of the same compound?
Its value is 3.

And the “Plant response rating, Soybean” value (soybean; [1])?
Its value is 3.

What about the “Soybean plant response rating” value (soybean; [2]) of the same compound?
The value was 5.

What about the “Plant response rating, Soybean” value (soybean; [7]) of the same compound?
Its value is 7.

What about the “Soybean plant response rating” value (soybean; [4]) of the same compound?
The value was 0.

And the “Plant response rating, Soybean” value (soybean; [5])?
Its value is 0.

What about the “Plant response rating, Sugarbeets” value (sugar beet; [6]) of the same compound?
The value was 0.

What about the “Plant response rating, Sugarbeets” value (sugar beet; [1]) of the same compound?
Its value is 0.

What about the “Sugarbeets plant response rating” value (sugar beet; [2]) of the same compound?
Its value is 0.

And the “Plant response rating, Sugarbeets” value (sugar beet; [7])?
Its value is 0.

And the “Sugarbeets plant response rating” value (sugar beet; [3])?
Its value is 0.

What about the “Sugarbeets plant response rating” value (sugar beet; [4]) of the same compound?
Its value is 2.

What about the “Plant response rating, Sugarbeets” value (sugar beet; [5]) of the same compound?
The value was 5.

And the “Plant response rating, Velvetleaf” value (velvetleaf; [6])?
Its value is 0.

What about the “Plant response rating, Velvetleaf” value (velvetleaf; [1]) of the same compound?
The value was 0.

What about the “Velvetleaf plant response rating” value (velvetleaf; [2]) of the same compound?
The value was 0.

What about the “Plant response rating, Velvetleaf” value (velvetleaf; [7]) of the same compound?
The value was 0.

And the “Velvetleaf plant response rating” value (velvetleaf; [3])?
The value was 0.

What about the “Velvetleaf plant response rating” value (velvetleaf; [4]) of the same compound?
The value was 6.

And the “Plant response rating, Velvetleaf” value (velvetleaf; [5])?
The value was 6.

And the “Plant response rating, Wheat” value (wheat; [6])?
The value was 0.

What about the “Plant response rating, Wheat” value (wheat; [1]) of the same compound?
The value was 0.

And the “Wheat plant response rating” value (wheat; [2])?
Its value is 0.

And the “Plant response rating, Wheat” value (wheat; [7])?
Its value is 0.

What about the “Wheat plant response rating” value (wheat; [3]) of the same compound?
Its value is 0.

And the “Wheat plant response rating” value (wheat; [4])?
Its value is 0.

What about the “Plant response rating, Wheat” value (wheat; [5]) of the same compound?
The value was 0.

And the “Plant response rating, Nutsedge” value (purple nutsedge; [6])?
The value was 0.

What about the “Plant response rating, Nutsedge” value (purple nutsedge; [1]) of the same compound?
The value was 0.

What about the “Nutsedge plant response rating” value (purple nutsedge; [2]) of the same compound?
Its value is 0.

And the “Plant response rating, Nutsedge” value (purple nutsedge; [7])?
Its value is 0.

What about the “Nutsedge plant response rating” value (purple nutsedge; [3]) of the same compound?
The value was 0.

And the “Nutsedge plant response rating” value (purple nutsedge; [4])?
The value was 0.

What about the “Plant response rating, Nutsedge” value (purple nutsedge; [5]) of the same compound?
Its value is 0.

What about the “Plant response rating, Rice (0 to 10 scale, 0 is no effect, 10 is complete control)” value (rice; [8]) of the same compound?
The value was 0.

What about the “Rice plant response rating (0 to 10 scale, 0 is no effect, 10 is complete control)” value (rice; [9]) of the same compound?
Its value is 0.

What about the “Rice plant response rating” value (rice; [10]) of the same compound?
Its value is 0.

What about the “Rice plant response rating” value (rice; [11]) of the same compound?
The value was 0.

What about the “Plant response rating, S. Flatsedge (0 to 10 scale, 0 is no effect, 10 is complete control)” value (smallflower flatsedge; [8]) of the same compound?
The value was 0.

What about the “S. Flatsedge plant response rating (0 to 10 scale, 0 is no effect, 10 is complete control)” value (smallflower flatsedge; [9]) of the same compound?
Its value is 0.

What about the “S. Flatsedge plant response rating” value (smallflower flatsedge; [10]) of the same compound?
Its value is 0.

What about the “S. Flatsedge plant response rating” value (smallflower flatsedge; [11]) of the same compound?
Its value is 0.

What about the “Plant response rating, Ducksalad (0 to 10 scale, 0 is no effect, 10 is complete control)” value (duck salad; [8]) of the same compound?
Its value is 0.

What about the “Ducksalad plant response rating (0 to 10 scale, 0 is no effect, 10 is complete control)” value (duck salad; [9]) of the same compound?
Its value is 0.

And the “Ducksalad plant response rating” value (duck salad; [10])?
The value was 0.

And the “Ducksalad plant response rating” value (duck salad; [11])?
Its value is 0.

And the “Plant response rating, Barnyardgrass (0 to 10 scale, 0 is no effect, 10 is complete control)” value (bamyardgrass; [8])?
Its value is 0.

And the “Barnyardgrass plant response rating (0 to 10 scale, 0 is no effect, 10 is complete control)” value (bamyardgrass; [9])?
Its value is 0.

What about the “Barnyardgrass plant response rating” value (bamyardgrass; [10]) of the same compound?
The value was 0.

And the “Barnyardgrass plant response rating” value (bamyardgrass; [11])?
The value was 0.
